Data on 13 compounds can be found in US6506797B1, “Substituted phenylpropionic acid derivatives as agonists to human peroxisome proliferator-activated receptor (PPAR) α” (Kyorin Pharmaceutical Co., Ltd., priority 1999, dated 2003).

One may read the melting point as the temperature of the solid-liquid transition. Broadly, the EC50 is the concentration needed to bring the measured effect to its halfway point.

Data set [1] has as its target T1, human peroxisome proliferator-activated receptor (PPAR)α (Homo sapiens, UniProt Q07869).
T1 sequence (Q07869 239-466 limits assumed): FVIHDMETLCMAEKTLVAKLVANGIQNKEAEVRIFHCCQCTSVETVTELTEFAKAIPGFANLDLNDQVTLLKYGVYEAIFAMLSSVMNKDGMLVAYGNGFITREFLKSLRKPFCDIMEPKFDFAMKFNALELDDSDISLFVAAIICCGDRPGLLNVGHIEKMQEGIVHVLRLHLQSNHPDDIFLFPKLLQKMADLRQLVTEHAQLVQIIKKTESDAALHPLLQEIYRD
Put plainly: Binding assay to human PPARα (His-hPPARα-LBD, [3H] ligand). The arrangement: expressed in transfected cells. As for the experimental part:
Binding assay to human peroxisome proliferator-activated receptor (PPAR)α
A plasmid that eXpresses protein of human PPARα-ligand binding domain attached with histidine tag (His-hPPARα-LBD) was cultured by infecting to Escherichia coli (JM-109) and aimed protein was recovered and purified. [^3H]-5-[(2,4-dioxothiazolidine-5-yl)methyl]-2-methoxy-N-[[4-(trifluoromethyl)phenyl]methyl]benzamide (Amasham), testing compound and (8S)-HETE being control compound were incubated for 45 minutes at room temperature at various concentrations together with His-hPPARα-LBD protein in 10 mmol/l Tris hydrochloride buffer (pH 7.4) containing 50 mmol/l potassium chloride and 10 mmol/l dithiothreitol. After the reaction, amount of [^3H]-5-[(2,4-dioxothiazolidine-5-yl)methyl]-2-methoxy-N-[[4-(trifluoromethyl)phenyl]methyl]benzamide was determined by a liquid scintillation counter.

Data set [2] addresses T1, human peroxisome proliferator-activated receptor (PPAR)α. Put plainly: Transactivation assay for human PPARα (CHO cells, luciferase reporter). It counts as cell-based. Further details: expressed in transfected cells; host or cells: CHO cells. An excerpt:
Transactivation assay for human peroxisome proliferator-activated receptor (PPAR)α
To CHO cells cultured in a Dulbecco-modified Eagle's medium containing 10% delipidated fetal calf serum (FCS/DMEM), receptor plasmid that eXpresses fused protein of DNA-binding domain being transcription factor of yeast with ligand-binding domain of human type PPARα (Biochemistry, 1993, 32, 5598) its reporter plasmid (STRATAGENE Corp.), and luciferase plasmid of Renilla (Promega Corp.) as an internal standard were cotransfected with lipofectamine in the serum-free state. Thereafter, testing compound and (8S)-HETE being control compound were added to 10% FCS/DMEM and both luciferase activities were measured after 24 hours, which were corrected with internal standard.
Test of transcription activation on human peroxisome proliferator-activated receptor (PPAR)α
The test of transcription activation on human peroxisome proliferator-activated receptor (PPAR)α shown in Test example 1 was performed to obtain results shown in Table 19.
(In a reporter assay the amount or activity of a reporter protein is the signal.)

The next data set concerns SD strain male rats. Put plainly: Test on lipid-lowering action in fructose-loaded-diet rats. It is filed as in vivo. The note with it: versus vehicle control. As for the experimental part:
Test on Lipid-lowering Action
After SD strain male rats (Nippon Charles Liver) were bred from 8-(weeks old) with feed (Nippon Clear), test was started from 11-(weeks old). After (fasting) for 2 days, testing compound and Bezafibrate (30 mg/kg), being control compound, suspended into 0.5% solution of arabic gum were administered orally once a day for continuous 4 days. For the feed during administration period, AIN-93M modified fructose-loaded diet (Oriental Yeast) was used. After administration for 4 days, blood was collected from (trial) vein and the blood levels of triglyceride, total cholesterol, and free fatty acid were determined by enzymatic method.
The lowering rate of triglyceride in blood, overall cholesterol and free fatty acid was calculated, respectively, by determining the proportion of a figure obtained by subtracting average level of triglyceride in blood (or, average level of (total) cholesterol or level of free fatty acid) of dosage group from average level of triglyceride in blood (or, average level of (total) cholesterol or level of free fatty acid) of vehicle control group to average level of triglyceride in blood (or, average level of overall cholesterol or level of free fatty acid) of vehicle control group.

Where [3] appears, read: 30 mg/kg orally once a day for 4 days.
Setting [4] is: 10 mg/kg orally once a day for 4 days.
[5] abbreviates: Table 19 (Test example 4), method of Test example 1, read-out: Transcriptional activity EC50.

On to `CC[C@@H](Cc1ccc(OC)c(C(=O)NCc2ccc(C(F)(F)F)cc2)c1)C(=O)O`, for which the melting point was in the range of 128 to 130 °C.

In the case of `COc1ccc(CC(C)(C)C(=O)O)cc1C(=O)NCc1ccc(C(F)(F)F)cc1`, the melting point was in the range of 151 to 152 °C.

Consider `CCC(Cc1ccc(OC)c(C(=O)NCc2ccc(C(F)(F)F)cc2)c1)C(=O)O` (stereo not drawn) [46], for which the melting point is 128 to 130 °C.

On to `CCCCC/C=C\C/C=C\C=C\[C@@H](O)C/C=C\CCCC(=O)O` [(8S) HETE, (8S)-HETE, reference compound], for which the EC50 in data set [1] (His-hPPARα-LBD, 45 minutes at room temperature, pH 7.4, read-out: Binding activity EC50) amounted to 170 nM; in data set [2] (Table 17, CHO cells, human PPARα LBD fusion, luciferase after 24 hours, read-out: Transcriptional activity EC50), 1300 nM.

Turning to `CC(C)(Oc1ccc(CCNC(=O)c2ccc(Cl)cc2)cc1)C(=O)O` [Bezafibrate, reference compound], in the data set on SD strain male rats (setting [3]), the “Lowering rate (%) Free fatty acid” value is on record as 37%, the “Lowering rate (%) Total cholesterol” value came to 49% and the “Lowering rate (%) Triglyceride in blood” value worked out at 64%.

`CCC(Cc1ccc(OC)c(C(=O)NCc2ccc(C(F)(F)F)cc2)c1)C(=O)O` (stereo not drawn) [Example 20, 2-Ethyl-3-[4-methoxy-3-[N-[[4-(trifluoromethyl)phenyl]-methyl]carbamoyl]phenyl]propanoic acid] displayed a melting point of 144.5 to 146.5 °C. Moreover, in the data set on SD strain male rats (setting [4]), the “Lowering rate (%) Free fatty acid” value is recorded as 77%, the “Lowering rate (%) Total cholesterol” value turned out to be 25% and the “Lowering rate (%) Triglyceride in blood” value turned out to be 53%. Besides, in the data set on SD strain male rats (setting [3]), the “Lowering rate (%) Free fatty acid” value is given as 53%, the “Lowering rate (%) Total cholesterol” value amounted to 55% and the “Lowering rate (%) Triglyceride in blood” value is given as 56%. In data set [1], the EC50 stood at 190 nM. The compound also displayed an EC50 in data set [2] of 11.5 nM.

For `CCC(Cc1ccc(OC)c(C(=O)NCc2ccc(-c3ccccc3)cc2)c1)C(=O)O` (stereo not drawn) [Example 22], the melting point fell in the range of 158.5 to 159.5 °C. In data set [1], this compound registered an EC50 of 430 nM. Further, a half-maximal response in data set [2] (EC50) required 110 nM.

In the case of `CCC(Cc1ccc(OC)c(C(=O)NCc2ccc(Oc3ccccc3)cc2)c1)C(=O)O` (stereo not drawn) [Example 23], the EC50 in data set [1] was 740 nM; in data set [2], 24 nM.

In turn, `COc1ccc(CC(OC)C(=O)O)cc1C(=O)NCc1ccc(C(F)(F)F)cc1` (stereo not drawn) [Example 24] registered a melting point of 161 to 163 °C. The EC50 in data set [1] is 560 nM. Further, the EC50 in data set [2] came to 180 nM.

Turning to `COc1ccc(CC(C)C(=O)O)cc1C(=O)NCc1ccc(C(F)(F)F)cc1` (stereo not drawn) [Example 30], the melting point is 155 to 156 °C. A half-maximal effect in data set [1] (EC50) was put at 840 nM. It took 200 nM to reach a half-maximal effect in data set [2] (EC50).

For the compound `CC[C@@H](Cc1ccc(OC)c(C(=O)NCc2ccc(Oc3ccc(F)cc3)cc2)c1)C(=O)O` [Example 174, (S)-(+)-2-ethyl-3-[4-methoxy-3-[N-[(4-fluorophenoxyphenyl)methyl]carbamoyl]phenyl]propanoic acid], the EC50 in data set [2] (setting [5]) was determined as 24 nM.

`CCC[C@@H](Cc1ccc(OC)c(C(=O)NCc2ccc(Oc3ccccc3)cc2)c1)C(=O)O` [Example 178] gave a melting point of 85 to 86 °C. In data set [2] (setting [5]), the EC50 was determined as 94 nM.

`CCC[C@@H](Cc1ccc(OC)c(C(=O)NCc2ccc(Oc3ccc(F)cc3)cc2)c1)C(=O)O` [Example 179] came in with a melting point of 126 to 127 °C. The EC50 in data set [2] (setting [5]) was determined as 9.2 nM.
